US10294202B2, “Pyrrolidinones as herbicides” (FMC Corporation, priority 2013, dated 2019)

Key:
[1] = system: barnyardgrass; assay: Test A pre-/postemergence herbicide test; format: in vivo, Echinochloa crus-galli
Method in brief: (§1)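 Directed soil spray to seeded pots (preemergence) or spray onto one- to two-leaf seedlings 2–10 cm tall (postemergence); loam/sand substrate throughout. Evaluated visually after about 10 days against untreated plants, 0 = no effect, 100 = complete control.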

[2] = system: kochia; assay: Test A pre-/postemergence herbicide test; format: in vivo, Kochia scoparia; details: for Plant response rating, Kochia: 0 to 100 scale
Method in brief: as §1

[3] = system: ragweed; assay: Test A pre-/postemergence herbicide test; format: in vivo, Ambrosia elatior; details: for Plant response rating, Ragweed: 0 to 100 scale
Method in brief: as §1

[4] = system: ryegrass, Italian; assay: Test A pre-/postemergence herbicide test; format: in vivo, Lolium multiflorum; details: for Plant response rating, Ryegrass, Italian: 0 to 100 scale
Method in brief: as §1

[5] = system: giant foxtail; assay: Test A pre-/postemergence herbicide test; format: in vivo, Setaria faberii; details: for Plant response rating, Foxtail, Giant: 0 to 100 scale
Method in brief: as §1

[6] = system: pigweed; assay: Test A pre-/postemergence herbicide test; format: in vivo, Amaranthus retroflexus; details: for Plant response rating, Pigweed: 0 to 100 scale
Method in brief: as §1

[7] = system: wheat; assay: Test A pre-/postemergence herbicide test; format: in vivo, Triticum aestivum; details: Postemergence; for Plant response rating, Wheat: 125 g ai/ha, 0 to 100 scale; for Wheat plant response rating (0 to 100 scale, 0 is no effect, 100 is complete control): 500 g ai/ha
Method in brief: as §1

[8] = system: corn; assay: Test A pre-/postemergence herbicide test; format: in vivo, Zea mays; details: Postemergence; for Plant response rating, Corn: 125 g ai/ha, 0 to 100 scale; for Corn plant response rating (0 to 100 scale, 0 is no effect, 100 is complete control): 500 g ai/ha
Method in brief: as §1

[9] = system: blackgrass; assay: Test A postemergence herbicide test; format: in vivo, Alopecurus myosuroides; details: for Plant response rating, Blackgrass: 125 g ai/ha, 0 to 100 scale; for Blackgrass plant response rating (0 to 100 scale, 0 is no effect, 100 is complete control): 500 g ai/ha
Method in brief: (§2)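 Potted in loam soil/sand blend; postemergence application at 1–2 leaf stage (2–10 cm). Greenhouse ~10 d. Visual injury vs untreated, 0–100 scale; 100 = complete control.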

[10] = system: galium; assay: Test A postemergence herbicide test; format: in vivo, Galium aparine; details: for Plant response rating, Galium: 125 g ai/ha, 0 to 100 scale; for Galium plant response rating (0 to 100 scale, 0 is no effect, 100 is complete control): 500 g ai/ha
Method in brief: as §2

[11] = system: rice; assay: Test B flooded paddy test; format: in vivo, Oryza sativa; details: 500 g ai/ha, Flood; scale of 0 to 100 where 0 is no effect and 100 is complete control
Method in brief: (§3)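 2-leaf plants; flood 3 cm over soil; compound into paddy water; depth held. Greenhouse 13–15 d. Visual rating vs controls, 0 (no effect) to 100 (complete control); dash = not tested.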

[12] = system: sedge, umbrella; assay: Test B flooded paddy test; format: in vivo, Cyperus difformis; details: 500 g ai/ha, Flood; scale of 0 to 100 where 0 is no effect and 100 is complete control
Method in brief: as §3

[13] = system: ducksalad; assay: Test B flooded paddy test; format: in vivo, Heteranthera limosa; details: 500 g ai/ha, Flood; scale of 0 to 100 where 0 is no effect and 100 is complete control
Method in brief: as §3

[14] = system: barnyardgrass; assay: Test B flooded paddy test; format: in vivo, Echinochloa crus-galli; details: 500 g ai/ha, Flood; scale of 0 to 100 where 0 is no effect and 100 is complete control
Method in brief: as §3

[15] = 125 g ai/ha, visual rating, 0 to 100 scale, 0 no effect, 100 complete control, approximately 10 days, preemergence
[16] = Postemergence, 125 g ai/ha, 0 to 100 scale, 0 no effect, 100 complete control
[17] = preemergence, 500 g ai/ha, 0 to 100 scale (0 no effect, 100 complete control)
[18] = 125 g ai/ha, visual rating, 0 no effect, 100 complete control, approximately 10 days, preemergence
[19] = Postemergence, 125 g ai/ha, 0 no effect, 100 complete control
[20] = 0 no effect, 100 complete control
[21] = preemergence, 500 g ai/ha, 0 is no effect and 100 is complete control
[22] = Postemergence, 125 g ai/ha, 0 is no effect, 100 is complete control
[23] = 0 is no effect, 100 is complete control

Row | Compound | Plant response rating, Barnyardgrass [1, 15] | Barnyardgrass plant response rating (0 to 100 scale, 0 is no effect, 100 is complete control) ([1]; Postemergence, 500 g ai/ha) | Plant response rating, Barnyardgrass [1, 17] | Plant response rating, Kochia [2, 18] | Kochia plant response rating (0 to 100 scale, 0 is no effect, 100 is complete control) ([2]; Postemergence, 500 g ai/ha) | Plant response rating, Ragweed [3, 18] | Ragweed plant response rating (0 to 100 scale, 0 is no effect, 100 is complete control) ([3]; Postemergence, 500 g ai/ha) | Plant response rating, Ryegrass, Italian [4, 18] | Ryegrass, Italian plant response rating (0 to 100 scale, 0 is no effect, 100 is complete control) ([4]; Postemergence, 500 g ai/ha) | Plant response rating, Foxtail, Giant [5, 18] | Foxtail, Giant plant response rating (0 to 100 scale, 0 is no effect, 100 is complete control) ([5]; Postemergence, 500 g ai/ha) | Plant response rating, Foxtail, Giant ([5]; preemergence, 500 g ai/ha) | Plant response rating, Pigweed [6, 18] | Pigweed plant response rating (0 to 100 scale, 0 is no effect, 100 is complete control) ([6]; Postemergence, 500 g ai/ha) | Wheat plant response rating (0 to 100 scale, 0 is no effect, 100 is complete control) [7] | Corn plant response rating (0 to 100 scale, 0 is no effect, 100 is complete control) [8] | Blackgrass plant response rating (0 to 100 scale, 0 is no effect, 100 is complete control) [9] | Galium plant response rating (0 to 100 scale, 0 is no effect, 100 is complete control) [10] | Plant response rating, Rice [11] | Plant response rating, Sedge, Umbrella [12] | also measured
1 | Cc1ccc(C2CNC(=O)C2C(=O)Nc2ccccc2F)cc1 (racemic) [Compound 149] | 90 | 80 | 90 | 10 | 60 | 60 | 40 | 20 | 50 | 70 | 70 | 90 | 0 | 0 | 20 | 70 | 40 | 60 | 0 | 0 | Plant response rating, Barnyardgrass [1, 16]: 70; Plant response rating, Kochia [2, 19]: 50; Plant response rating, Kochia ([2]; preemergence, 500 g ai/ha): 70; Plant response rating, Ragweed [3, 19]: 30; Plant response rating, Ragweed ([3]; preemergence, 500 g ai/ha): 80; Plant response rating, Ryegrass, Italian [4, 19]: 10; Plant response rating, Ryegrass, Italian ([4]; preemergence, 500 g ai/ha): 70; Plant response rating, Foxtail, Giant [5, 19]: 40; Plant response rating, Pigweed [6, 19]: 0; Plant response rating, Pigweed ([6]; preemergence, 500 g ai/ha): 0; Plant response rating, Wheat [7, 20]: 0; Plant response rating, Corn [8, 20]: 10; Plant response rating, Blackgrass [9, 20]: 30; Plant response rating, Galium [10, 20]: 50; Plant response rating, Ducksalad [13]: 100; Plant response rating, Barnyardgrass [14]: 70
2 | Cc1ccc(C2CNC(=O)C2C(=O)Nc2cccc(F)c2F)cc1 (racemic) [Compound 151] | 90 | 90 | 90 | 90 | 80 | 90 | 70 | 10 | 50 | 80 | 70 | 90 | 0 | 60 | 60 | 50 | 70 | 70 | 0 | 0 | Plant response rating, Barnyardgrass [1, 16]: 80; Plant response rating, Kochia [2, 19]: 70; Plant response rating, Kochia ([2]; preemergence, 500 g ai/ha): 90; Plant response rating, Ragweed [3, 19]: 60; Plant response rating, Ragweed ([3]; preemergence, 500 g ai/ha): 90; Plant response rating, Ryegrass, Italian [4, 19]: 30; Plant response rating, Ryegrass, Italian ([4]; preemergence, 500 g ai/ha): 60; Plant response rating, Foxtail, Giant [5, 19]: 60; Plant response rating, Pigweed [6, 19]: 50; Plant response rating, Pigweed ([6]; preemergence, 500 g ai/ha): 0; Plant response rating, Wheat [7, 20]: 0; Plant response rating, Corn [8, 20]: 0; Plant response rating, Blackgrass [9, 20]: 40; Plant response rating, Galium [10, 20]: 60; Plant response rating, Ducksalad [13]: 100; Plant response rating, Barnyardgrass [14]: 90
3 | Cc1ccc(C2CNC(=O)C2C(=O)Nc2ccccc2Cl)cc1 (racemic) [Compound 152] | 90 | 80 | 90 | 30 | 60 | 50 | 50 | 0 | 50 | 70 | 60 | 90 | 0 | 20 | 0 | 0 | 50 | 70 | 15 | 0 | Plant response rating, Barnyardgrass [1, 16]: 70; Plant response rating, Kochia [2, 19]: 50; Plant response rating, Kochia [2, 21]: 60; Plant response rating, Ragweed [3, 19]: 40; Plant response rating, Ragweed [3, 21]: 70; Plant response rating, Ryegrass, Italian [4, 19]: 10; Plant response rating, Ryegrass, Italian [4, 21]: 30; Plant response rating, Foxtail, Giant [5, 19]: 50; Plant response rating, Pigweed [6, 19]: 0; Plant response rating, Pigweed [6, 21]: 10; Plant response rating, Wheat [7, 20]: 0; Plant response rating, Corn [8, 20]: 0; Plant response rating, Blackgrass [9, 20]: 0; Plant response rating, Galium [10, 20]: 60; Plant response rating, Ducksalad [13]: 100; Plant response rating, Barnyardgrass [14]: 60
4 | Cc1ccc(C2CNC(=O)C2C(=O)Nc2cccc(F)c2)cc1 (racemic) [Compound 153] | 80 | 80 | 90 | 60 | 60 | 0 | 10 | 0 | 0 | 60 | 60 | 80 | 0 | 50 | 0 | 0 | 30 | 60 | 10 | 0 | Plant response rating, Barnyardgrass ([1]; Postemergence, 125 g ai/ha, 0 to 100 scale, 0 is no effect, 100 is complete control): 60; Plant response rating, Kochia [2, 22]: 60; Plant response rating, Kochia [2, 21]: 80; Plant response rating, Ragweed [3, 22]: 0; Plant response rating, Ragweed [3, 21]: 80; Plant response rating, Ryegrass, Italian [4, 22]: 0; Plant response rating, Ryegrass, Italian [4, 21]: 0; Plant response rating, Foxtail, Giant [5, 22]: 50; Plant response rating, Pigweed [6, 22]: 40; Plant response rating, Pigweed [6, 21]: 0; Plant response rating, Wheat [7, 23]: 0; Plant response rating, Corn [8, 23]: 0; Plant response rating, Blackgrass [9, 23]: 40; Plant response rating, Galium [10, 23]: 0; Plant response rating, Ducksalad [13]: 100; Plant response rating, Barnyardgrass [14]: 60
